The structures appear in SMILES notation.

This assay concerns the target Neuronal acetylcholine receptor subunit alpha-7 (Homo sapiens, UniProt P36544). As to the kind of experiment: Agonist activity at nAChR alpha-7 expressed in Xenopus oocytes. The format is functional, cell-based, Oocyte.

Neuronal acetylcholine receptor subunit alpha-7, sequence (P36544 whole entry): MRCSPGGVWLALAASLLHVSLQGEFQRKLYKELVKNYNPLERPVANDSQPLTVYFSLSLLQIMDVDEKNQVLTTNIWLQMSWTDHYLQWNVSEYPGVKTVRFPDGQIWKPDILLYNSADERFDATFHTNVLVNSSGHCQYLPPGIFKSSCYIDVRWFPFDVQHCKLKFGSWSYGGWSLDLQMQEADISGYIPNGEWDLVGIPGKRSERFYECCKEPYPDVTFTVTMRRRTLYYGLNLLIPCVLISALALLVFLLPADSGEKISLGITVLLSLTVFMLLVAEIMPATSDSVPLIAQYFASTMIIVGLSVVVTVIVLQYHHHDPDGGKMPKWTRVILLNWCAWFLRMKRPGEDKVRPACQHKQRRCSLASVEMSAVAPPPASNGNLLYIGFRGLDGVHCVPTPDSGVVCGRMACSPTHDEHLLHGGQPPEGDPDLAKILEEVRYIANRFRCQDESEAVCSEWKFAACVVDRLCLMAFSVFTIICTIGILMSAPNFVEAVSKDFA

As a reminder, the EC50 is the concentration needed to bring the measured effect to its halfway point. Read a low EC50 as a more potent agent. Take `C(=C1\CN2CCC1CC2)/c1ccccc1`: the midpoint of the response, the EC50, lay at 1500 nM. The same measure for `COc1ccc(/C=C2/CN3CCC2CC3)cc1`: 1300 nM.

(Values after ChEMBL document CHEMBL1147168, “Quinuclidines as selective agonists for alpha-7 nicotinic acetylcholine receptors” (Bioorg Med Chem Lett, 2007).)
